In brackets after ≈: the same amount, converted by molar mass.

For the data set the following is noted: buffer; pH 7.4; 200.0 µM.
In the case of `COCCn1c(SCC(=O)NC2CCCC2)nnc1-c1ccco1`, the kinetic solubility (as a rule, solubility judged after dilution from a stock solution rather than from solid) is over 52.6 µg/mL.
As to `CN(C)S(=O)(=O)c1ccc(C(=O)OCC2CCCO2)cc1` (centres undefined), the solubility (kinetic) was over 47 µg/mL.
In turn, `CC(OC(=O)c1ccc2c(c1)S(=O)(=O)c1ccccc1C2=O)C(N)=O` (centres undefined) gave a kinetic solubility of 29.3 µg/mL (≈ 81.5 µM).
The figure for `COc1ccccc1Nc1nc(C)nc2c1oc1ccccc12.Cl` is 0.5 µg/mL; for `O=C(Nc1nccs1)c1ccc(-c2ccc(Cl)cc2)o1` it is 1.9 µg/mL (≈ 6.23 µM).
The figure for `CC#CC[N+](C)(C)CCCCCC.[Cl-]` is 27.8 µg/mL; for `Cc1onc(-c2ccccc2)c1C(=O)NCCc1ccncc1` it is over 46.1 µg/mL; for `O=C(COC(=O)c1ccc(F)c([N+](=O)[O-])c1)NC(=O)NCc1ccccc1` it is 21.3 µg/mL (≈ 56.8 µM).
With `OCCCNc1nc(-c2ccc(Cl)cc2)nc2ccccc12`, the kinetic solubility came out at 1.8 µg/mL (≈ 5.74 µM).
Compound `CCCOc1ccc(C(=O)Nc2ccc3c(c2)OCO3)cc1` had a kinetic solubility of 1 µg/mL (≈ 3.34 µM). Against the preceding compound, the solubility kinetic is about 1.8-fold lower.
The same measure for `CC(=O)Nc1ccc2nc(NC(=O)c3ccco3)sc2c1`: 4.9 µg/mL (≈ 16.3 µM); for `N#Cc1ccc(CSc2nnc3ccccn23)cc1`: over 39.9 µg/mL; for `CC(=O)Nc1ccc(Oc2cncc(Cl)c2)nc1`: over 39.6 µg/mL.
`COc1ccc(NC2=NCCCS2)cc1OC`: the solubility (kinetic) was over 37.8 µg/mL.
The compound `c1ccc2c(c1)Cc1cc3ccccc3nc1-2` yielded a solubility (kinetic) of 4.3 µg/mL (≈ 19.8 µM).
`Fc1cccc(C2CCCCN2Cc2nc(C3CC3)no2)c1` (centres undefined) had a kinetic solubility of 17.1 µg/mL (≈ 56.7 µM).
Turning to `Cc1cc(=O)[nH]c2c(C)cc(S(=O)(=O)N3CCOCC3)cc12`, the solubility (kinetic) was determined as 17.3 µg/mL (≈ 53.7 µM).
The figure for `O=C(CO/N=C/c1ccc(OC(F)F)cc1)NC1CCCCC1` is 6.7 µg/mL (≈ 20.5 µM); for `CCOc1ccc2[nH]c(C)c(CN3CCCCCC3)c(=O)c2c1` it is over 47.2 µg/mL.
The figure for `COc1ccnc2c1c(=O)n(Cc1ccc(Cl)cc1)c(=O)n2C` is 9.3 µg/mL (≈ 28 µM); for `COC(=O)c1[nH]c2ccccc2c1CN1CCOCC1` it is over 41.1 µg/mL; for `O=C(Nc1cccc(S(=O)(=O)N2CCCCC2)c1)c1ccccn1` it is 5.1 µg/mL (≈ 14.8 µM).
`N#CC1=C(N)OC2=C(C(=O)CCC2)C1c1ccc2c(c1)OCO2` (centres undefined) returned a solubility (kinetic) of 16.5 µg/mL (≈ 53.2 µM). Compared with the last compound, the solubility kinetic is about 3.2-fold higher.
On to `CCOc1ccc(NC(=S)NCc2ccc3c(c2)OCO3)cc1`, for which the solubility (kinetic) amounted to 17.1 µg/mL (≈ 51.8 µM).
The figure for `CSc1nsc(SCC(=O)Nc2ccc(F)cc2F)n1` is over 50 µg/mL.
`CC[C@H](CO)NCCN[C@H](CC)CO.Cl` gave a kinetic solubility of over 41.6 µg/mL.
In the case of `Cc1ccc2[nH]c3c(c2c1)CCCC3NCCO.Cl` (centres undefined), the solubility (kinetic) was over 42.1 µg/mL.
On to `O=C(OCC(=O)N1CCCCC1)c1ccc(OC(F)(F)F)cc1`, for which the solubility (kinetic) was determined as 16.2 µg/mL (≈ 48.9 µM).
The figure for `COCc1cc(=O)[nH]c(SCC(=O)N2CCOCC2)n1` is over 44.9 µg/mL; for `CCCCN(CC)C(=O)c1cc2cc3ccc(Cl)cc3nc2o1` it is 3.3 µg/mL (≈ 9.98 µM); for `NCC(=O)Nc1ccc(Br)cc1` it is 27.6 µg/mL (≈ 120 µM).
`Cl.Clc1ccccc1CN1CCNCC1` had a solubility (kinetic) of over 37.1 µg/mL.
As for `COCCNC(=O)C(OC(=O)c1cccs1)c1ccc(F)cc1` (centres undefined), the solubility (kinetic) was over 50.6 µg/mL.
`N/C(Cc1ccc([N+](=O)[O-])cc1)=N\OC(=O)C1CCCCC1`: the kinetic solubility stood at 41.2 µg/mL (≈ 135 µM).
Take `O=C(CSc1ccccc1)Nc1ccc(Cl)c(S(=O)(=O)N2CCOCC2)c1`: the solubility (kinetic) was 14.6 µg/mL (≈ 34.2 µM).
The same measure for `O=C(CCNC(=O)c1ccc([N+](=O)[O-])cc1)Nc1nccs1`: 12.9 µg/mL (≈ 40.3 µM).
Regarding `Cc1ccc(O)c(NC(=S)NC(=O)Cc2ccc(Cl)cc2)c1`, the kinetic solubility amounted to 1.3 µg/mL (≈ 3.88 µM).
Turning to `O=c1[nH]c(/C=C\c2ccccc2F)nc(O)c1[N+](=O)[O-]`, the solubility (kinetic) was over 41.6 µg/mL.
`O=S(=O)(NCC1CC1)c1ccc(F)c(Cl)c1` registered a kinetic solubility of over 39.6 µg/mL.
The figure for `COc1ccc(NC(=O)c2ccc([N+](=O)[O-])o2)cc1` is 23.4 µg/mL (≈ 89.2 µM); for `Cc1ccc(N2C(=O)C3CCC(C)(C2=O)C3(C)C)cc1` (centres undefined) it is 26.7 µg/mL (≈ 98.4 µM); for `CCCOC(=O)c1ccc(NC(=O)c2ccccc2[N+](=O)[O-])cc1` it is 11 µg/mL (≈ 33.5 µM).
Compound `Cc1noc(NS(=O)(=O)c2ccc(N)cc2)c1C` displayed a solubility (kinetic) of over 40.1 µg/mL.
The figure for `Cc1ccc(S(=O)(=O)CCC(=O)NC2CCCCC2)cc1` is over 46.4 µg/mL; for `CC(C)Nc1nc(Cl)nc(Nc2ccccc2)n1` it is 27.3 µg/mL (≈ 104 µM).
The compound `CC(C(Sc1ccccc1N)c1ccccc1)[N+](=O)[O-]` (centres undefined) returned a solubility (kinetic) of 15.1 µg/mL (≈ 52.4 µM).
The figure for `Cc1nc(SCCc2ccccc2)[nH]c(=O)c1C` is 10.9 µg/mL (≈ 41.9 µM); for `Cc1noc(C)c1COC(=O)/C=C/c1ccc(Cl)cc1` it is 6.4 µg/mL (≈ 21.9 µM).
The figure for `Cc1cccc(NC(=O)CNC(=O)CSc2ncccn2)c1C` is over 49.6 µg/mL.
The same measure for `O=C(CSc1nc2c(c(=O)[nH]1)CCC2)Nc1ccccc1Cl`: 8.8 µg/mL (≈ 26.2 µM); for `Cc1cccc(NC(=O)C2CCCCN2S(=O)(=O)c2ccccc2)c1C` (centres undefined): 45.1 µg/mL (≈ 121 µM); for `Cc1ccc(C)c(/C=C2\N=C(c3ccccc3F)OC2=O)c1`: 11.8 µg/mL (≈ 40 µM).
In turn, `Cc1nn(CC(=O)Nc2ccc(N3CCOCC3)cc2)c(C)c1[N+](=O)[O-]` displayed a kinetic solubility of over 53.9 µg/mL.
The same measure for `Cc1ccc2oc(C(=O)N(C)Cc3ccon3)c(C)c2c1`: 39.2 µg/mL (≈ 138 µM); for `CCCC#CCN1CCN(C23CC4CC(CC(C4)C2)C3)CC1`: 42.6 µg/mL (≈ 142 µM).
On to `O=C(/C=C/c1ccc(-c2ccccc2)cc1)NCc1cccnc1`, for which the kinetic solubility is under 0.3 µg/mL.
The compound `Cc1ccccc1C(=O)OC1CCCN(C)C1.Cl` (centres undefined) gave a kinetic solubility of 39.9 µg/mL.
For `Cc1ccc[n+](CC(=O)Nc2ccc([N+](=O)[O-])cc2)c1.[Cl-]`, the kinetic solubility was over 46.2 µg/mL.
The figure for `O=C(NC(=S)N1CCN(c2ccc(O)cc2)CC1)c1ccco1` is over 49.7 µg/mL; for `O=C(O)CC1(CC(=O)NCc2ccc(Cl)cc2)CCCCC1` it is over 48.6 µg/mL; for `O=C(CCNS(=O)(=O)c1ccccc1)N1CCOCC1` it is over 44.8 µg/mL.
`Cn1c(N)nc2nc(CCc3ccccc3)c(=O)[nH]c2c1=O` returned a kinetic solubility of 9.9 µg/mL (≈ 33.3 µM).
Take `CCOCC(=O)OCC(=O)NC12CC3CC(CC(C3)C1)C2`: the solubility (kinetic) is over 44.3 µg/mL.
In turn, `Nc1c(Br)c(=O)[nH]c(=O)n1-c1ccccc1` returned a solubility (kinetic) of over 42.3 µg/mL.
`CCCSC1=C(C#N)C2(CCCCC2)C(C#N)=C(N)N1` came in with a kinetic solubility of over 43.3 µg/mL.
`CN=C(N)NC(=O)Nc1c(C)cccc1C.Cl` had a kinetic solubility of over 38.5 µg/mL.
As for `Cc1sc2nc(COC(=O)c3c(F)cccc3F)[nH]c(=O)c2c1C`, the kinetic solubility came out at 4.2 µg/mL (≈ 12 µM).
The figure for `O=C1CSC(c2cccnc2)N1Cc1ccc(Cl)cc1Cl` (centres undefined) is over 50.9 µg/mL.
The figure for `CC(=O)N1CCN(C(=O)COC(=O)/C=C/c2ccccc2[N+](=O)[O-])CC1` is over 54.2 µg/mL; for `Cc1ccc(CNCC(O)(c2ccccc2)c2ccccc2)cc1` it is 6 µg/mL (≈ 18.9 µM); for `COc1ccc2[nH]c(C(=O)NCc3ccccc3)cc2c1` it is 1.3 µg/mL (≈ 4.64 µM).
With `CCCCc1ccc(NC(=S)N2CCCC2)cc1`, the solubility (kinetic) worked out at 9.2 µg/mL (≈ 35.1 µM).
The same measure for `CC1CN(CCc2ccccc2)C(C)C/C1=N/O` (centres undefined): 32 µg/mL (≈ 130 µM); for `O=C(CN1CCCCC1)N1CCc2ccccc21`: 36.6 µg/mL (≈ 150 µM).
On to `O=S(=O)(c1ccc(F)c(F)c1)N1CCC2(CC1)OCCO2`, for which the kinetic solubility was over 47.9 µg/mL.
The same measure for `Cc1nnc(SCC(=O)O)s1`: over 28.5 µg/mL; for `O=C(COC(=O)C1CC2CCCC(C1)C2=O)Nc1ccc(F)c(Cl)c1` (centres undefined): 54.9 µg/mL (≈ 149 µM).
The figure for `CC(Oc1ccccc1)C(=O)NC1CCCCCCC1` (centres undefined) is over 41.3 µg/mL.
The compound `CCOCCCNC(=O)c1ccc(C2SCC(=O)N2Cc2ccccc2)cc1` (centres undefined) gave a solubility (kinetic) of over 59.8 µg/mL.
In turn, `COCCNc1c2c(c(C#N)c3nc4ccccc4n13)CCCC2` came in with a solubility (kinetic) of 11.8 µg/mL (≈ 36.8 µM).
The same measure for `O=C(OCC(=O)N1CCCCCC1)c1ccc(Br)c(S(=O)(=O)N2CCOCC2)c1`: over 73.4 µg/mL.
`O=c1[nH]c2cc(NCCO)c([N+](=O)[O-])cc2[nH]1` displayed a solubility (kinetic) of over 35.7 µg/mL.
The compound `Cc1ccc(C)c(N=Cc2c(O)c3ccccc3oc2=O)c1` came in with a kinetic solubility of 1.6 µg/mL (≈ 5.45 µM).
`O=C(O)/C=C\C(=O)Nc1cc(O)ccc1[N+](=O)[O-]` showed a solubility (kinetic) of over 37.8 µg/mL.
The same measure for `CC(C)c1ccc(NS(=O)(=O)c2ccc3c(c2)oc(=O)n3C)cc1`: 0.9 µg/mL (≈ 2.6 µM).
`O=C(/C=C/c1ccccc1)N1CCOCC1` yielded a solubility (kinetic) of over 32.6 µg/mL.
Compound `O=S(=O)(c1ccc(F)cc1)N1CCCCC1c1cccnc1` (centres undefined) returned a kinetic solubility of over 48.1 µg/mL.
Compound `CSc1ccccc1NC(=O)CN(C)CC(=O)Nc1ccc(S(=O)(=O)N2CCCC2)cc1` showed a kinetic solubility of 1.3 µg/mL (≈ 2.73 µM).
In the case of `CN/C=C(/Cl)P(=O)(OC(C)C)OC(C)C`, the solubility (kinetic) was over 38.4 µg/mL.
Compound `Fc1ccc2c(c1)C1OCCCC1C(c1ccccc1)N2` (centres undefined) registered a solubility (kinetic) of under 0.6 µg/mL.
Regarding `CCCc1cc(=O)[nH]c(SCC(=O)Nc2ccc3ccccc3c2)n1`, the kinetic solubility worked out at 2.6 µg/mL (≈ 7.36 µM).
As to `CN(CC(=O)NCCCN1CCOCC1)S(=O)(=O)c1ccc(Cl)cc1`, the solubility (kinetic) is over 58.5 µg/mL.
Compound `O=C(c1ccoc1)N1CCCC(Nc2ccc(F)c(F)c2)C1` (centres undefined) displayed a solubility (kinetic) of 44.5 µg/mL (≈ 145 µM).
Compound `CCc1ccccc1NC(=S)N(CCN(C)C)Cc1cccs1` yielded a solubility (kinetic) of 45.6 µg/mL (≈ 131 µM).
The figure for `COc1ccc(Nc2nc(N)c([N+](=O)[O-])c(NCCO)n2)cc1` is 46.4 µg/mL (≈ 145 µM); for `CSc1cccc(NS(=O)(=O)c2cn(C)cn2)c1` it is 14.2 µg/mL (≈ 50.1 µM).
Turning to `COc1ccccc1CC(=O)Nc1sc2c(c1C(N)=O)CCCC2`, the kinetic solubility was 2 µg/mL (≈ 5.81 µM). This solubility kinetic lies about 7.1-fold lower than the previous one.
The figure for `CC1CCCC(C)N1C(=O)c1cc(-c2ccco2)on1` (centres undefined) is over 41.1 µg/mL.
In turn, `Cc1ccc(Nc2cc(C)c(O)c(C)c2)cc1` returned a solubility (kinetic) of 10.5 µg/mL (≈ 46.2 µM).
`CC(C)c1ccc(NC(=O)c2ccccc2NC(=O)C2CCCCC2C(=O)O)cc1` (centres undefined) showed a kinetic solubility of 55.3 µg/mL (≈ 135 µM).
As to `Cc1ccc(N(CC(=O)Nc2cc(C)ccc2C)S(C)(=O)=O)cc1`, the kinetic solubility is 33.7 µg/mL (≈ 97.3 µM). Against the preceding compound, the solubility kinetic is about 1.6-fold lower.
The compound `CCOC(=O)C1CCCCN1Cc1ccc(-c2ccccc2)cc1` (centres undefined) displayed a solubility (kinetic) of 1.5 µg/mL (≈ 4.64 µM).
`Cc1ccc(OCc2nc3ccccc3n2C)cc1` came in with a kinetic solubility of 5.7 µg/mL (≈ 22.6 µM). Compared with the last compound, the solubility kinetic is about 3.8-fold higher.
The same measure for `CSc1cccc(NC(=S)N(C(C)C)C(C)c2ccccn2)c1` (centres undefined): 9.6 µg/mL (≈ 27.8 µM).

For the origin of these results see PubChem BioAssay AID1996.
